Experimental data from patent US7700652B2, “Treating urinary incontinence using prodrugs of GABA analogs” (XenoPort, Inc., priority 2003, dated 2010).

Test: drug release from the osmotic sustained release dosage form in artificial gastric fluid
Format: physicochemical
Conditions: sustained release oral osmotic dosage form of Example 1 (700 mg drug composition per bilayer core, one 10 mil passageway)
Protocol: Next, one 10 mil (0.254 mm) exit passageway is mechanically drilled through the semipermeable wall to connect the drug layer with the exterior of the dosage system. The residual solvent is removed by first drying for 120 hours at 50° C. and 30% relative humidity, then the systems are dried for 2 hours at 50° C. to remove excess moisture. The drug dosage form produced by this process provides: ˜90 wt % 1-{[(α-isobutanoyloxyethoxy)carbonyl]aminomethyl}-1-cyclohexane acetic acid, 4 wt % hydroxypropylmethylcellulose (11,200 molecular weight), 4 wt % polyethylene oxide of 5,000,000 molecular weight and 1 wt % magnesium stearate in the drug layer. The push composition comprises […] polyethylene oxide (7,500,000 molecular weight) 30 wt % sodium chloride, 5 wt % hydroxypropylmethylcellulose (11,200 molecular weight) 1 wt % red ferric oxide, 0.25 wt % magnesium stearate, and 0.075 wt % of butylated hydroxytoluene. The wall comprises 100 wt % cellulose acetate comprising a ˜40% acetyl content. The dosage form has one passageway, 10 mils (0.254 mm), and it has a 1-{[(α-isobutanoyloxyethoxy)carbonyl]aminomethyl}-1-cyclohexane acetic acid release rate of >20 mg/hr and a half life for drug release of >8 hours in artificial gastric fluid.

**Q.** For `CC(OC(=O)NCC1(CC(=O)O)CCCCC1)OC(=O)C(C)C` (stereo not drawn) [1-{[(α-isobutanoyloxyethoxy)carbonyl]aminomethyl}-1-cyclohexane acetic acid], which release rate is on record?
**A.** > 20 mg/h
